Results: patent US4888414A, “Insulin-binding peptides and uses thereof” (Board of Regents, University of Texas System, priority 1987, dated 1989)
Where no end group is shown, it is not given here.

Legend:
insulin [1] = biological target: T1, insulin (Homo sapiens, UniProt P01308); assay: Binding of 125I-insulin to immobilized IBP in microtitre wells
Procedure: Insulin Binding Peptide, synthesized by OCS Laboratories, Inc., Denton, Tex., was immobilized in the wells of flexible, U-bottom 96-well polyvinyl chloride microtitre plates (Falcon, Becton Dickinson Labware). To each well was added 100 ul of the peptide (5 ug/ml in 0.1 M sodium carbonate, pH 9.6). The peptide was allowed to adsorb to the well overnight at 4° C. Unreacted sites in the wells were blocked with 150 ul of 1% ovalbumin (Sigma Chemical Co.) in 0.1M sodium carbonate, pH 9.6, for 1 h at room temperature. The wells were washed two times with phosphate-buffered saline (PBS) containing 0.1% BSA (Fraction V, Sigma Chemical Co.), and then incubated with ^125 I-insulin in PBS, 0.1% BSA, for 3 h at room temperature. The wells were then washed 3 times with PBS-0.1% BSA, and were then excised from the plate and counted in a gamma counter. Total binding of insulin to the IBP was determined with iodinated insulin alone. Nonspecific binding was determined in the presence of radiolabeled insulin plus 3 uM unlabeled insulin. Specific binding was calculated as the difference between total and nonspecific binding. All values are reported as specific binding, unless otherwise indicated. All determinations (both total and nonspecific) were performed in triplicate. Insulin was iodinated by the method of Chloramine T, as previously described (Gavin et al., Proc. Nat. Acad. Sci., Vol. 71, p. 84-88 (1974)).
The peptide was immobilized in the bottom of 96-well microtitre plates, and at zero time, 2 nM ^125 I-insulin, in the absence or presence of 3 uM unlabeled insulin, was added to each of the wells. At the indicated times, the wells were washed with cold PBS, the washed wells were cut from the dish and counted for radioactivity. The indicated data points are average values of specifically bound insulin, and the error bars indicate the range of the data. At 25° C., the binding attained equilibrium within 1.5 h, with a half-time of approximately 20 min. At 4° C., the binding process is slightly slower, requiring approximately 2 h to attain an equilibrium level of binding.
The peptide was immobilized in the bottom of 96-well microtitre plates, and ^125 I-insulin, in the absence or presence of 3 uM unlabeled insulin, was added to the wells. Following incubation at 25° C. for 3 h, the wells were washed, cut from the dish, and counted, as described above. The indicated data points of FIG. 2 are average values of specifically bound insulin, the error bars indicate the range of the data.

[2] = Binding of iodinated polypeptide hormones to immobilized IBP; conditions: 2 nM iodinated hormone; room temperature 3 h
Procedure: The specificity of the binding of IBP to insulin was determined by incubating iodinated calcitonin, parathyroid hormone or atrial naturiuretic peptide with immobilized IBP. The binding of insulin to IBP appears to be a specific process. The specific binding of the low molecular weight polypeptide hormones calcitonin, parathyroid hormone and atrial naturiuretic peptide is less than 1% of the level of the specific binding of insulin (Ins) to IBP. The insulin-binding peptide was immobilized in the bottom of 96-well microtitre plates. To the wells were then added 2 nM iodinated polypeptide hormones in the absence or presence of at least a 1000-fold excess of unlabeled hormone. Following incubation at room temperature for 3 h, the wells were washed, excised from the plate and ^125 I measured as described above. The specific binding of hormone to the wells is indicated, along with the binding as a percentage of the binding of insulin to the wells. The polypeptide hormones utilized are indicated on the abcissa: Cal, calcitonin; PTH, parathyroid hormone; ANP, atrial naturiuretic peptide; Ins, insulin.

insulin [3] = biological target: T1, insulin; assay: Binding of 125I-insulin to various immobilized peptides; conditions: peptide immobilized from 5 ug/ml; 2 nM 125I-insulin
Procedure: The binding specificity of iodinated insulin for immobilized peptides was determined. Peptides of various sequences and sizes were immobilized in microtitre wells, as described in Example 1. The peptides utilized were IBP (CVEEAS) and a series of control peptide having the following designations and amino acid sequences: S28, TTHYQKG; S79, AQGHRPQDEG; S81, YGSLPQKAQGHRPQDEG; S82, THYGSLPQKAQGHRPQDEG; and EAE, FSWGAEGQR.
Peptides were dissolved in buffer at a concentration of 5 ug/ml, and immobilized in the wells of the microtitre plate. The immobilized peptides were then incubated with 2 nM ^125 I-insulin in the absence or presence of 3 uM unlabeled insulin, as described above. The specific binding of insulin to immobilized peptide is indicated, alone with the binding as a percentage of the binding of insulin to immobilized IBP. The peptides utilized are indicated on the abcissa. The respective relative binding of insulin (shown in FIG. 5) was IBP-100%, S28-0.3%, S79-1.5%, S81-0.6%, S82-0.2% and EAE-0.3%.

T1 sequence (P01308 25-54 limits assumed, species assumed): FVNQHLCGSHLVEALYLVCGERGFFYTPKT
T1 sequence (P01308 90-110 partner limits assumed, species assumed): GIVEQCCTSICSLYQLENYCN

Substance | specific binding to IBP as percentage of the specific binding of insulin [2] | relative binding of insulin to immobilized peptide, as percentage of binding to immobilized IBP (insulin [3]) | also measured
CVEEAS [IBP, NH2 -Cys-Val-Glu-Glu-Ala-Ser-COOH] |  |  | time to attain an equilibrium level of binding (insulin [1]; 4° C., 2 nM 125I-insulin): approximately 2 h; half-time of binding (insulin [1]; 25° C., 2 nM 125I-insulin): approximately 20 min; time for binding to attain equilibrium (insulin [1]; 25° C., 2 nM 125I-insulin): ≤ 1.5 h; Kd (insulin [1]; IBP immobilized on plastic surface, 125I-insulin, 25° C. for 3 h, read-out: Kd of insulin binding to immobilized IBP (Scatchard)): 3 nM
atrial naturiuretic peptide | less than 1% |  | 
FSWGAEGQR [EAE, FSWGAEGQR] |  | 0.3% | 
calcitonin | less than 1% |  | 
AQGHRPQDEG [S79, AQGHRPQDEG] |  | 1.5% | 

Now from value to substance, other results behind:

specific binding to IBP as percentage of the specific binding of insulin [2] | relative binding of insulin to immobilized peptide, as percentage of binding to immobilized IBP (insulin [3]) | Substance | also measured
 | 0.6% | YGSLPQKAQGHRPQDEG [S81, YGSLPQKAQGHRPQDEG] | 
 | 0.2% | THYGSLPQKAQGHRPQDEG [S82, THYGSLPQKAQGHRPQDEG] | 
less than 1% |  | parathyroid hormone | 
 | 0.3% | TTHYQKG [S28, TTHYQKG] | 
